This passage reports mass density and viscosity results from the NIST ThermoML archive (doi:10.1021/je800571y).

For data set [1] the following is noted: 101 kPa, Liquid.
Data set [2] in a line: xn = mol fraction of the nth substance listed. The note with it: 101 kPa, Liquid.

± gives the expanded uncertainty stated by the source.

The mass density is mass per unit of volume. What is called viscosity is the resistance of a fluid to flow. With `CCC(C)=O` [butanone], the mass density amounted to 804.92 ± 1.1 kg/m3 in data set [1] (293.15 K); 799.7 ± 1.1 kg/m3 in data set [1] (298.15 K); 794.81 ± 1.1 kg/m3 in data set [1] (303.15 K); 789.78 ± 1.2 kg/m3 in data set [1] (308.15 K); 784.32 ± 1.2 kg/m3 in data set [1] (313.15 K). Further, the viscosity stood at 0.2828 ± 0.074 mPa·s in data set [1] (298.15 K), 0.2666 ± 0.071 mPa·s in data set [1] (303.15 K), 0.2601 ± 0.07 mPa·s in data set [1] (308.15 K) and 0.2545 ± 0.069 mPa·s in data set [1] (313.15 K).
As to `CCC(C)=O` [butanone] + CCC(C)(C)O, the mass density in data set [2] (293.15 K, x1 = 1) worked out at 804.92 ± 1.1 kg/m3; in data set [2] (298.15 K, x1 = 1), 799.7 ± 1.1 kg/m3; in data set [2] (303.15 K, x1 = 1), 794.81 ± 1.1 kg/m3; in data set [2] (308.15 K, x1 = 1) it was 789.78 ± 1.2 kg/m3; in data set [2] (313.15 K, x1 = 1) it was 784.32 ± 1.2 kg/m3. Also, the viscosity in data set [2] (293.15 K, x1 = 1) worked out at 0.3956 ± 0.093 mPa·s; in data set [2] (298.15 K, x1 = 1) it was 0.2828 ± 0.074 mPa·s; in data set [2] (303.15 K, x1 = 1) it was 0.2666 ± 0.071 mPa·s; in data set [2] (308.15 K, x1 = 1), 0.2601 ± 0.07 mPa·s; in data set [2] (313.15 K, x1 = 1), 0.2545 ± 0.069 mPa·s.
As for `CC(C)O` [propan-2-ol] + CCC(C)=O, the mass density in data set [2] (293.15 K, x2 = 0) worked out at 785.45 ± 0.99 kg/m3; in data set [2] (298.15 K, x2 = 0) it was 781.26 ± 0.98 kg/m3; in data set [2] (303.15 K, x2 = 0), 777.97 ± 1.1 kg/m3; in data set [2] (308.15 K, x2 = 0), 772.59 ± 1.1 kg/m3; in data set [2] (313.15 K, x2 = 0), 768.32 ± 1.1 kg/m3. Moreover, the viscosity was found to be 2.226 ± 0.41 mPa·s in data set [2] (293.15 K, x2 = 0); 1.91 ± 0.35 mPa·s in data set [2] (298.15 K, x2 = 0); 1.737 ± 0.32 mPa·s in data set [2] (303.15 K, x2 = 0); 1.524 ± 0.29 mPa·s in data set [2] (308.15 K, x2 = 0); 1.347 ± 0.26 mPa·s in data set [2] (313.15 K, x2 = 0).
Turning to `CC(C)CO` [2-methyl-1-propanol], the mass density in data set [1] (293.15 K) turned out to be 801.68 ± 0.98 kg/m3; in data set [1] (298.15 K), 797.8 ± 1 kg/m3; in data set [1] (303.15 K), 794.16 ± 1.1 kg/m3; in data set [1] (308.15 K) it was 790.06 ± 1.1 kg/m3; in data set [1] (313.15 K), 786.7 ± 1.1 kg/m3. The viscosity is on record as 4.037 ± 0.71 mPa·s in data set [1] (293.15 K); 3.33 ± 0.59 mPa·s in data set [1] (298.15 K); 2.875 ± 0.52 mPa·s in data set [1] (303.15 K); 2.421 ± 0.44 mPa·s in data set [1] (308.15 K); 1.967 ± 0.36 mPa·s in data set [1] (313.15 K).
As to `CCC(C)O` (centres undefined) [butan-2-ol], the mass density worked out at 806.48 ± 1 kg/m3 in data set [1] (293.15 K); 802.35 ± 1 kg/m3 in data set [1] (298.15 K); 798.96 ± 1.1 kg/m3 in data set [1] (303.15 K); 794.18 ± 1.1 kg/m3 in data set [1] (308.15 K); 790.07 ± 1.1 kg/m3 in data set [1] (313.15 K). The viscosity stood at 3.632 ± 0.64 mPa·s in data set [1] (293.15 K); 2.998 ± 0.54 mPa·s in data set [1] (298.15 K); 2.498 ± 0.45 mPa·s in data set [1] (303.15 K); 2.054 ± 0.38 mPa·s in data set [1] (308.15 K); 1.799 ± 0.33 mPa·s in data set [1] (313.15 K).
In the case of `CCC(C)(C)O` [2-methylbutan-2-ol], the mass density in data set [1] (293.15 K) stood at 809.61 ± 1.1 kg/m3; in data set [1] (298.15 K), 805.01 ± 1.1 kg/m3; in data set [1] (303.15 K) it was 800.41 ± 1.1 kg/m3; in data set [1] (308.15 K) it was 795.81 ± 1.1 kg/m3; in data set [1] (313.15 K), 791.21 ± 1.2 kg/m3. Also, the viscosity was 5.108 ± 0.88 mPa·s in data set [1] (293.15 K); 4.474 ± 0.78 mPa·s in data set [1] (298.15 K); 3.909 ± 0.69 mPa·s in data set [1] (303.15 K); 3.387 ± 0.6 mPa·s in data set [1] (308.15 K); 2.909 ± 0.52 mPa·s in data set [1] (313.15 K).
With `CCC(C)O` (centres undefined) [butan-2-ol] + CCC(C)=O, the mass density in data set [2] (293.15 K, x2 = 0) worked out at 806.48 ± 1 kg/m3; in data set [2] (298.15 K, x2 = 0), 802.35 ± 1 kg/m3; in data set [2] (303.15 K, x2 = 0), 798.96 ± 1.1 kg/m3; in data set [2] (308.15 K, x2 = 0) it was 794.18 ± 1.1 kg/m3; in data set [2] (313.15 K, x2 = 0) it was 790.07 ± 1.1 kg/m3. Also, the viscosity was 3.632 ± 0.64 mPa·s in data set [2] (293.15 K, x2 = 0); 2.998 ± 0.54 mPa·s in data set [2] (298.15 K, x2 = 0); 2.498 ± 0.45 mPa·s in data set [2] (303.15 K, x2 = 0); 2.054 ± 0.38 mPa·s in data set [2] (308.15 K, x2 = 0); 1.799 ± 0.33 mPa·s in data set [2] (313.15 K, x2 = 0).
`CC(C)CO` [2-methyl-1-propanol] + CCC(C)=O: the mass density in data set [2] (293.15 K, x2 = 0) came out at 801.68 ± 0.98 kg/m3; in data set [2] (298.15 K, x2 = 0), 797.8 ± 1 kg/m3; in data set [2] (303.15 K, x2 = 0), 794.16 ± 1.1 kg/m3; in data set [2] (308.15 K, x2 = 0) it was 790.06 ± 1.1 kg/m3; in data set [2] (313.15 K, x2 = 0), 786.7 ± 1.1 kg/m3. Besides, the viscosity in data set [2] (293.15 K, x2 = 0) turned out to be 4.037 ± 0.71 mPa·s; in data set [2] (298.15 K, x2 = 0), 3.33 ± 0.59 mPa·s; in data set [2] (303.15 K, x2 = 0), 2.875 ± 0.52 mPa·s; in data set [2] (308.15 K, x2 = 0), 2.421 ± 0.44 mPa·s; in data set [2] (313.15 K, x2 = 0), 1.967 ± 0.36 mPa·s.
`CC(C)O` [propan-2-ol]: the mass density in data set [1] (293.15 K) turned out to be 785.45 ± 0.99 kg/m3; in data set [1] (298.15 K) it was 781.26 ± 0.98 kg/m3; in data set [1] (303.15 K), 777.97 ± 1.1 kg/m3; in data set [1] (308.15 K), 772.59 ± 1.1 kg/m3; in data set [1] (313.15 K) it was 768.32 ± 1.1 kg/m3. Further, the viscosity worked out at 2.226 ± 0.41 mPa·s in data set [1] (293.15 K); 1.91 ± 0.35 mPa·s in data set [1] (298.15 K); 1.737 ± 0.32 mPa·s in data set [1] (303.15 K); 1.524 ± 0.29 mPa·s in data set [1] (308.15 K); 1.347 ± 0.26 mPa·s in data set [1] (313.15 K).
